Source: paper PMC5666424, “Marine-Derived 2-Aminoimidazolone Alkaloids. Leucettamine B-Related Polyandrocarpamines Inhibit Mammalian and Protozoan DYRK & CLK Kinases” (Marine Drugs, 2017)

Columns and labels:
Assay in all cases: KinomeScan
Format in all cases: binding
Conditions in all cases: 1 μM
[1] = biological target: T1, ABL1(T315I)-nonphosphorylated (Homo sapiens, UniProt P00519, T315I)
T1 construct: purchased DiscoverX (KINOMEscan)
Description: (§1) Assays were performed essentially as described previously. For most assays, kinase-tagged T7 phage strains were grown in parallel in 24-well blocks in an E. coli host derived from the BL21 strain. E. coli were grown to log-phase and infected with T7 phage from a frozen stock (multiplicity of infection ~0.1) and incubated with shaking at 32 °C until lysis (~90 min). The lysates were centrifuged (6000× g) and filtered (0.2 μm) to remove cell debris. The remaining kinases were produced in HEK-293 cells and subsequently tagged with DNA for qPCR detection. […] The liganded beads were blocked with excess biotin and washed with blocking buffer (SeaBlock (Pierce, ThermoFisher Scientific, Illkirch, France), 1% BSA, 0.05% Tween 20, 1 mM DTT) to remove unbound ligand and to reduce non-specific phage binding. […] An 11-point threefold serial dilution of each test compound was prepared in 100% DMSO at 100× final test concentration which and subsequently diluted to 1× in the assay. All reactions were performed in polystyrene 96-well plates in a final volume of 0.135 mL. […] The kinase concentration in the eluates was measured by qPCR.

CTK = biological target: T2, CTK (Homo sapiens, UniProt P42679)
T2 construct: purchased DiscoverX (KINOMEscan)
Description: as §1

TGFBR1 = biological target: T3, TGFBR1 (Homo sapiens, UniProt P36897)
T3 construct: purchased DiscoverX (KINOMEscan)
Description: as §1

EPHA2 = biological target: T4, EPHA2 (Homo sapiens, UniProt P29317)
T4 construct: purchased DiscoverX (KINOMEscan)
Description: as §1

LIMK2 = biological target: T5, LIMK2 (Homo sapiens, UniProt P53671)
T5 construct: purchased DiscoverX (KINOMEscan)
Description: as §1

CSF1R = biological target: T6, CSF1R (Homo sapiens, UniProt P07333)
T6 construct: purchased DiscoverX (KINOMEscan)
Description: as §1

SRMS = biological target: T7, SRMS (Homo sapiens, UniProt Q9H3Y6)
T7 construct: purchased DiscoverX (KINOMEscan)
Description: as §1

MAP3K15 = biological target: T8, MAP3K15 (Homo sapiens, UniProt Q6ZN16)
T8 construct: purchased DiscoverX (KINOMEscan)
Description: as §1

ULK1 = biological target: T9, ULK1 (Homo sapiens, UniProt O75385)
T9 construct: purchased DiscoverX (KINOMEscan)
Description: as §1

EPHB1 = biological target: T10, EPHB1 (Homo sapiens, UniProt P54762)
T10 construct: purchased DiscoverX (KINOMEscan)
Description: as §1

DCAMKL1 = biological target: T11, DCAMKL1 (Homo sapiens, UniProt O15075)
T11 construct: purchased DiscoverX (KINOMEscan)
Description: as §1

CAMK1D = biological target: T12, CAMK1D (Homo sapiens, UniProt Q8IU85)
T12 construct: purchased DiscoverX (KINOMEscan)
Description: as §1

CDK9 = biological target: T13, CDK9 (Homo sapiens, UniProt P50750)
T13 construct: purchased DiscoverX (KINOMEscan)
Description: as §1

FES = biological target: T14, FES (Homo sapiens, UniProt P07332)
T14 construct: purchased DiscoverX (KINOMEscan)
Description: as §1

YANK1 = biological target: T15, YANK1 (Homo sapiens, UniProt Q8WU08)
T15 construct: purchased DiscoverX (KINOMEscan)
Description: as §1

AURKC = biological target: T16, AURKC (Homo sapiens, UniProt Q9UQB9)
T16 construct: purchased DiscoverX (KINOMEscan)
Description: as §1

EPHB2 = biological target: T17, EPHB2 (Homo sapiens, UniProt P29323)
T17 construct: purchased DiscoverX (KINOMEscan)
Description: as §1

CDK4-cyclinD1 = biological target: T18, CDK4-cyclinD1 (Homo sapiens, UniProt P11802)
T18 construct: purchased DiscoverX (KINOMEscan)
Description: as §1

CAMKK2 = biological target: T19, CAMKK2 (Homo sapiens, UniProt Q96RR4)
T19 construct: purchased DiscoverX (KINOMEscan)
Description: as §1

DCAMKL2 = biological target: T20, DCAMKL2 (Homo sapiens, UniProt Q8N568)
T20 construct: purchased DiscoverX (KINOMEscan)
Description: as §1

AMPK-alpha1 = biological target: T21, AMPK-alpha1 (Homo sapiens, UniProt Q13131)
T21 construct: purchased DiscoverX (KINOMEscan)
Description: as §1

[2] = biological target: T22, JAK1(JH1domain-catalytic) (Homo sapiens, UniProt P23458)
T22 construct: JAK1(JH1domain-catalytic); purchased DiscoverX (KINOMEscan)
Description: as §1

JNK3 = biological target: T23, JNK3 (Homo sapiens, UniProt P53779)
T23 construct: purchased DiscoverX (KINOMEscan)
Description: as §1

FGR = biological target: T24, FGR (Homo sapiens, UniProt P09769)
T24 construct: purchased DiscoverX (KINOMEscan)
Description: as §1

MYLK = biological target: T25, MYLK (Homo sapiens, UniProt Q15746)
T25 construct: purchased DiscoverX (KINOMEscan)
Description: as §1

[3] = biological target: T26, ABL1(F317I)-phosphorylated (Homo sapiens, UniProt P00519, F317I)
T26 construct: purchased DiscoverX (KINOMEscan)
Description: as §1

GCN2(Kin.Dom.2,S808G) = biological target: T27, GCN2(Kin.Dom.2,S808G) (Homo sapiens, UniProt Q9P2K8, S808G)
T27 construct: GCN2(Kin.Dom.2,S808G); purchased DiscoverX (KINOMEscan)
Description: as §1

KIT(D816V) = biological target: T28, KIT(D816V) (Homo sapiens, UniProt P10721, D816V)
T28 construct: purchased DiscoverX (KINOMEscan)
Description: as §1

HIPK3 = biological target: T29, HIPK3 (Homo sapiens, UniProt Q9H422)
T29 construct: purchased DiscoverX (KINOMEscan)
Description: as §1

FLT3 = biological target: T30, FLT3 (Homo sapiens, UniProt P36888)
T30 construct: purchased DiscoverX (KINOMEscan)
Description: as §1

FLT4 = biological target: T31, FLT4 (Homo sapiens, UniProt P35916)
T31 construct: purchased DiscoverX (KINOMEscan)
Description: as §1

MAP3K4 = biological target: T32, MAP3K4 (Homo sapiens, UniProt Q9Y6R4)
T32 construct: purchased DiscoverX (KINOMEscan)
Description: as §1

CSNK1G1 = biological target: T33, CSNK1G1 (Homo sapiens, UniProt Q9HCP0)
T33 construct: purchased DiscoverX (KINOMEscan)
Description: as §1

[4] = biological target: T34, JAK3(JH1domain-catalytic) (Homo sapiens, UniProt P52333)
T34 construct: JAK3(JH1domain-catalytic); purchased DiscoverX (KINOMEscan)
Description: as §1

DRAK2 = biological target: T35, DRAK2 (Homo sapiens, UniProt O94768)
T35 construct: purchased DiscoverX (KINOMEscan)
Description: as §1

MAK = biological target: T36, MAK (Homo sapiens, UniProt P20794)
T36 construct: purchased DiscoverX (KINOMEscan)
Description: as §1

T12 sequence (Q8IU85 whole entry): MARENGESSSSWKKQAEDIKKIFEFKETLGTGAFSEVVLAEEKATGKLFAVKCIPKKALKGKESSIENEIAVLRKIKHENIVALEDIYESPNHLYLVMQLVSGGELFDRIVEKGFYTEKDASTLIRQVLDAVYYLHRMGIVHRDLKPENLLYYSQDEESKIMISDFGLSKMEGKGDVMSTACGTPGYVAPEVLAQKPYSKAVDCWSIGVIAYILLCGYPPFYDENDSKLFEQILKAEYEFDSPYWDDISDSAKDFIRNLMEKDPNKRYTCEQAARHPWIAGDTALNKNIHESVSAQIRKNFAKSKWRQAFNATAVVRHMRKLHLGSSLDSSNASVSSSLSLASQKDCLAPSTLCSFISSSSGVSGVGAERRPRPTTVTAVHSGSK
T36 sequence (P20794 whole entry): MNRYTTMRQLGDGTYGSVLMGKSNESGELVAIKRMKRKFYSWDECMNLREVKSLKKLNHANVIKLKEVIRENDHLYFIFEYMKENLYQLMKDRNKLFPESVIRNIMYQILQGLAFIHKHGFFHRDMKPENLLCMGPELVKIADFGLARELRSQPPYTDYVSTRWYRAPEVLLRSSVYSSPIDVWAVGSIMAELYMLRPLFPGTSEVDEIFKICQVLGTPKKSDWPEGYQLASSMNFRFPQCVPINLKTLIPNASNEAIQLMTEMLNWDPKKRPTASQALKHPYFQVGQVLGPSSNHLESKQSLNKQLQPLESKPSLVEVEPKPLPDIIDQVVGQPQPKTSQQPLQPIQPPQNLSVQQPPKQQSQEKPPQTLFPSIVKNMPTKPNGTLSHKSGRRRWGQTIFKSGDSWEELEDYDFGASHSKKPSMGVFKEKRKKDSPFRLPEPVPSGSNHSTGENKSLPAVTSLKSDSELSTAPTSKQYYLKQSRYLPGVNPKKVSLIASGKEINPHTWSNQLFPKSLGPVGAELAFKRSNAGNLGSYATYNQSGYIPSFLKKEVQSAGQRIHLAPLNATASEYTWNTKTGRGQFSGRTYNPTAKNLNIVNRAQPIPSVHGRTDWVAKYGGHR
T21 sequence (Q13131 whole entry): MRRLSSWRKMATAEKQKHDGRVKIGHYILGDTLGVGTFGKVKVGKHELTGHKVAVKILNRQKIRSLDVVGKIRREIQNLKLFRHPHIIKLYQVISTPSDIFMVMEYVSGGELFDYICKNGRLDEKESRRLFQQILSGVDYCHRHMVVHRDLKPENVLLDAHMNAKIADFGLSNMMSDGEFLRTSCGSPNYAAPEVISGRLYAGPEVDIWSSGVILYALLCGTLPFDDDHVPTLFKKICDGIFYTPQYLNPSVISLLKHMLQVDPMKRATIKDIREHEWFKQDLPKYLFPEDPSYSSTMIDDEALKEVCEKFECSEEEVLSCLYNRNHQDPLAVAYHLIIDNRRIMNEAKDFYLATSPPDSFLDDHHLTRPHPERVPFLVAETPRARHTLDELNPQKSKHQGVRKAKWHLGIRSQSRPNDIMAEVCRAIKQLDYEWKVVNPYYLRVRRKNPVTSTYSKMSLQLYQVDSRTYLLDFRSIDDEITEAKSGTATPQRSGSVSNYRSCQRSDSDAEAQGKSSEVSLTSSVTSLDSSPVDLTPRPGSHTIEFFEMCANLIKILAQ
T30 sequence (P36888 27-993): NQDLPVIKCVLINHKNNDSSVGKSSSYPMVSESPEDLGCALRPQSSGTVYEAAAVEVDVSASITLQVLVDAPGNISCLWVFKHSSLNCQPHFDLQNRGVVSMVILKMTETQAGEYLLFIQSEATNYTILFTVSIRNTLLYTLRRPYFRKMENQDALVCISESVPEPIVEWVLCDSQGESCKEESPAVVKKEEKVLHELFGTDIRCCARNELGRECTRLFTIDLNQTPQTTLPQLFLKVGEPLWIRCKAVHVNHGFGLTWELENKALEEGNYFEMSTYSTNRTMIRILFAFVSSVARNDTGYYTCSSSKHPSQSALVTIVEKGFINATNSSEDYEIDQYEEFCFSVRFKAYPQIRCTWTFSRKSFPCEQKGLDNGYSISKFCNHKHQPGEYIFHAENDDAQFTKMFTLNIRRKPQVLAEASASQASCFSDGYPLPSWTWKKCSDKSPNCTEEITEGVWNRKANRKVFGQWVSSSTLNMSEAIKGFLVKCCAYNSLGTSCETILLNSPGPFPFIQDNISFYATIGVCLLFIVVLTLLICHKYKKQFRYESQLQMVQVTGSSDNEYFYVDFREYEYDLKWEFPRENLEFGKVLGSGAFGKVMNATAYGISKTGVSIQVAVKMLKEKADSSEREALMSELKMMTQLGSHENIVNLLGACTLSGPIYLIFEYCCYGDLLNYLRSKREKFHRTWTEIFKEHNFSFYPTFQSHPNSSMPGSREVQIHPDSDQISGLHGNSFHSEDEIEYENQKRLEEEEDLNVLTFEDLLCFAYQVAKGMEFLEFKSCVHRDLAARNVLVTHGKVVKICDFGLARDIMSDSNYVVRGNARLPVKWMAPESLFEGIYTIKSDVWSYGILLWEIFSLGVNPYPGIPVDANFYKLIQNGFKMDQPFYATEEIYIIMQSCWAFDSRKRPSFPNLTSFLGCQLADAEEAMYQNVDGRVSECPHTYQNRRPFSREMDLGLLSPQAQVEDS
T4 sequence (P29317 24-976): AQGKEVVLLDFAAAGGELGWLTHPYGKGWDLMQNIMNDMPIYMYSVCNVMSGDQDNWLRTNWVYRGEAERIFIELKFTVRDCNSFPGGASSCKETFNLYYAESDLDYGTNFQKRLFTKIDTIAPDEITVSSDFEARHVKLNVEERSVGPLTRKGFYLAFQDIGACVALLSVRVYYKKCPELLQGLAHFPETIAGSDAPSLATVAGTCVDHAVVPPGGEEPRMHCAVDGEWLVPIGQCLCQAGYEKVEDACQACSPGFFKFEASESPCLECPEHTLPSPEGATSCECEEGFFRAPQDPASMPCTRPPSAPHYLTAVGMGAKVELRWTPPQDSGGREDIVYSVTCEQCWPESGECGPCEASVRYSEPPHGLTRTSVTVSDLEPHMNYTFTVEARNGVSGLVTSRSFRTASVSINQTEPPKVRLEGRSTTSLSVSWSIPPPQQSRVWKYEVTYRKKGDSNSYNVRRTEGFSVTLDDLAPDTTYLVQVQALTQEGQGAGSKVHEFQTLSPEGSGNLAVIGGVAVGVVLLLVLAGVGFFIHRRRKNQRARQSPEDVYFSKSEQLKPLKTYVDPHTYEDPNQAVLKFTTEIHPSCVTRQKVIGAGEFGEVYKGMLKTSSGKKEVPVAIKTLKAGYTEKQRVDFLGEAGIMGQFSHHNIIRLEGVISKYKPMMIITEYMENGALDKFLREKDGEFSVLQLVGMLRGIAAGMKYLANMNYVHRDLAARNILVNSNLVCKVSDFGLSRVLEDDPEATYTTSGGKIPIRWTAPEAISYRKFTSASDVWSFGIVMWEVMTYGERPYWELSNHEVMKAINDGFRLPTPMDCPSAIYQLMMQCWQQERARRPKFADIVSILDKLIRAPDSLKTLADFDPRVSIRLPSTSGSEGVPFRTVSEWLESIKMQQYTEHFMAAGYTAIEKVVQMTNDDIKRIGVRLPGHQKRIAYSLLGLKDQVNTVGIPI
T7 sequence (Q9H3Y6 whole entry): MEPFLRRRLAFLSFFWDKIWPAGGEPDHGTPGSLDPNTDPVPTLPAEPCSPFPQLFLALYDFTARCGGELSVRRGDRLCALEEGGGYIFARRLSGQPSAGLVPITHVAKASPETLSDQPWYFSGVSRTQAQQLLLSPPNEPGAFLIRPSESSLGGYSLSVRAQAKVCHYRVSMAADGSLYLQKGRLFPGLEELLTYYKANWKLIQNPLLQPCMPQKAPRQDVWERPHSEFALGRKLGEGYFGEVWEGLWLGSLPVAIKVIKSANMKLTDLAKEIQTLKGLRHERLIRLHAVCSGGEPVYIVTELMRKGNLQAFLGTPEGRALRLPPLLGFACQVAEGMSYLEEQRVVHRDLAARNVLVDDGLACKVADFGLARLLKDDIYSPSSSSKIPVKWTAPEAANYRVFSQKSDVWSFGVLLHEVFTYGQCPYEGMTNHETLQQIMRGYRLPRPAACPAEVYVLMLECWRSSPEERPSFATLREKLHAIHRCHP
T28 sequence (P10721 26-976 D816V): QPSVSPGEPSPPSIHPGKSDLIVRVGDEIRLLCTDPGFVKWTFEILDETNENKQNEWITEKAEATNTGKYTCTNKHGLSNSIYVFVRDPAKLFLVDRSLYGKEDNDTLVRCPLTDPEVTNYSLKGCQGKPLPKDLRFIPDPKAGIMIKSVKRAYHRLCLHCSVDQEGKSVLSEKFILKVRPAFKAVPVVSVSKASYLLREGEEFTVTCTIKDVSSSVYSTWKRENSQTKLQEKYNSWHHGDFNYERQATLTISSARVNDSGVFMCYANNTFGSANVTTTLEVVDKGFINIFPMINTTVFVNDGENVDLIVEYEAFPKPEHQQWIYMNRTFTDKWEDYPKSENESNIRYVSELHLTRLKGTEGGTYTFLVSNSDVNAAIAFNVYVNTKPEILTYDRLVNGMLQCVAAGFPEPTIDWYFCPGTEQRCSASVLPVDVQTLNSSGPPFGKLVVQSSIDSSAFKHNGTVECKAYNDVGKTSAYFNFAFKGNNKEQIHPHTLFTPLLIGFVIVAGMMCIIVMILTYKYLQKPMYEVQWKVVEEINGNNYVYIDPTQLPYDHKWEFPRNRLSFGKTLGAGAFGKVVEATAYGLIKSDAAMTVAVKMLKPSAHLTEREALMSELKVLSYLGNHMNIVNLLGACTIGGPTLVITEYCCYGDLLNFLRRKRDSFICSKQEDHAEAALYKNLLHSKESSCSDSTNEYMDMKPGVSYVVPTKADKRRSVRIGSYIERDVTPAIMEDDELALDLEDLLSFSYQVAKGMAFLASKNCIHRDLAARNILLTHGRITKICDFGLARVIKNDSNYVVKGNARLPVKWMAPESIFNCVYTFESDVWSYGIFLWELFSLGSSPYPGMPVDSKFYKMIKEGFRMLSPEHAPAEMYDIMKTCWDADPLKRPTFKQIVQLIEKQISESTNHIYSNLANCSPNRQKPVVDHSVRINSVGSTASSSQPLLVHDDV

COc1cc(/C=C2\N=C(N)NC2=O)ccc1O [Polyandrocarpamine A] gave a Score [1] of 67, a Score (CTK) of 100 and a Score (TGFBR1) of 100. It also gave a Score (EPHA2) of 100, a Score (LIMK2) of 96 and a Score (CSF1R) of 87. The Score (SRMS) was 100, the Score (MAP3K15) was 100 and the Score (ULK1) was 94. For the same compound, the Score (EPHB1) was 89, the Score (DCAMKL1) was 98 and the Score (CAMK1D) was 100. For the same compound, the Score (CDK9) was 88, the Score (FES) was 96 and the Score (YANK1) was 100. It also gave a Score (AURKC) of 99, a Score (EPHB2) of 79 and a Score (CDK4-cyclinD1) of 96. For the same compound, the Score (CAMKK2) was 94, the Score (DCAMKL2) was 100 and the Score (AMPK-alpha1) was 100. The Score [2] was 72, the Score (JNK3) was 93 and the Score (FGR) was 100. It also gave a Score (MYLK) of 98, a Score [3] of 86 and a Score (GCN2(Kin.Dom.2,S808G)) of 90. It also gave a Score (KIT(D816V)) of 100, a Score (HIPK3) of 19 and a Score (FLT3) of 100. For the same compound, the Score (FLT4) was 100, the Score (MAP3K4) was 100 and the Score (CSNK1G1) was 100. The Score [4] was 84, the Score (DRAK2) was 51 and the Score (MAK) was 91.
